Measured values taken from patent US7825268B2, “Alkoxylactones, alkoxylactams and alkoxythiolactams for controlling processes based on microbial interaction” (Henkel AG & Co. KGaA, priority 2003, dated 2010).

Tested on: Pseudomonas aeruginosa ATCC 15442
Assay: Biofilm test on glass surfaces (microscope slides, SafraninO staining)
Assay type: cell-based
Conditions: 6 hours incubation; for biofilm reduction (relative to the control without active substance): first range finding experiments (FIG. 1)
Protocol: (b) Use of Alkyloxylactones for the Reduction of Biofilms on Glass Surfaces.
The germ Pseudomonas aeruginosa ATCC 15442 is cultivated at 37° C. on Caso-Agar overnight. A CFU (Colony Eorming Unit) of solid medium is incubated in 50 ml Caso-broth at 37° C. for 7 hours and 150 rpm (1. passage). 100 μl germs from the washed liquid culture are carried over into 50 ml fresh Caso-nutrient medium and incubated at 37° C. for approximately 16 hours and 150 rpm. (2. Passage). A germ count of 10^6 CFU/ml is used from this second passage in the biofilm test. For the biofilm test, the germs in the above-mentioned concentration, together with a diluted complete medium (20 times with DGHM-water diluted TBY), are pipetted into a micro-titration plate (6-position chamber), which is used as the miniaturized biofilm test system. The active substances under test are added in the desired concentration to the mixture (3 ml). As controls, first, attempts were made with active substances, but without germs, as the active substances could already have an inherent color (negative control); secondly, diluted complete medium with germs, but without the active substances were also used as controls. In addition, 1 sterile glass plate (microscope slide), size 18×18, on the surface of which the biofilm growth is investigated, is placed into each of the 6-position chambers. For each starting material, triple determinations are carried out, i.e. three glass slides are investigated per starting material. The 6-position plates are shaken for 6 or 24 hours at 30° C. and 60 rpm. After the predetermined incubation times, 1 ml per starting material are removed for germ count determination, diluted in trypton-NaCl solution and plated out on Caso-Agar. The resulting plates are incubated for 24 hours at 37° C. and then counted. The slide glasses are taken out of the 6-positions to be dried at room temperature and then dyed in new 6-positions with 3 ml 0.01% SafraninO-solution (made up in sterile water) for 15 minutes. The colorant solution is then siphoned off, non-bound colorant is removed with water from the slide glasses and the colored slide glasses dried. The colored and dried surfaces of the slide glasses are scanned and evaluated using Corel Draw paint 9. In order to be able to subtract the background value (of the glass) from the measured value, additional untreated slide glasses are also scanned.

[1] = 100 ppm, DMSO control = 100% (FIG. 2)
[2] = 50 ppm and 100 ppm, control without active substance = 100% (FIG. 1)

## CC1(C)COC(=O)C1O (stereo not drawn) [pantolactone, Pantolactone, reference compound]
[1]
  effect on biofilm formation: did not show any notable effect

## CCCCOC1C(=O)OCC1(C)C (stereo not drawn) [Example H123, butyloxypantolactone]
[2]
  effect on biofilm formation: only a moderate effect

## O=C1OCCC1O (stereo not drawn) [hydroxybutyrolactone, Hydroxybutyrolactone, reference compound]
[1]
  effect on biofilm formation: did not show any notable effect

## CCCCCCCCCCCCCCCCOC1CCOC1=O (stereo not drawn) [hexadecylbutyrolactone, a-hexadecyloxy-γ-butyrolactone]
[1]
  effect on biofilm formation: best biofilm reduction

## CCCCCCCCOC1CCOC1=O (stereo not drawn) [Example H128, a-Octyloxy-γ-butyrolactone]
100 ppm
  biofilm reduction (relative to the control without active substance): approximately 40%
On increasing the concentration of active substance, it precipitated out, result not shown
  reduction in biofilm inhibition: 20%

## CCCCCCCOC1C(=O)OCC1(C)C (stereo not drawn) [Example 188, Heptyloxypantolactone]
[1]
  biofilm reduction (with respect to the DMSO control): more than 40%

## CCCCCCCCO[C@H]1C(=O)OCC1(C)C [Example H33, a-Octyloxy-D-(−)-pantolactone]
100 ppm
  biofilm reduction (relative to the control without active substance): more than 30%

## CCCCOC1CCOC1=O (stereo not drawn) [Example H99, butyloxybutyrolactone]
[2]
  effect on biofilm formation: only a moderate effect
